Here are results for one molecule from US20250290928A1, “METHOD, KIT AND DEVICE FOR DETECTING EXTRACELLULAR VESICLES” (priority 2022, published 2025).

Experiment [1] has as its system CD9/CD63/CD81 in the extracellular vesicles. Kind of experiment: Digital CD9/CD63/CD81 sandwich detection with biotinylated detection antibody and streptavidin-conjugated β-galactosidase. It is filed as binding, Human. The note with it: Example 33, 30° C., 4 h. The method, then: An anti-CD9 antibody (ab58989), an anti-CD63 antibody (ab59479), and an anti-CD81 antibody (ab59477) were buffer-exchanged into Biotinylation Reaction Buffer to provide an antibody solution. A biotinylation reagent NHS-PEG4-Biotin was added to the solution, and the mixture was stirred and then subjected to a reaction at room temperature for 30 minutes. After that, the resultant was washed with Biotinylation Reaction Buffer, and then recovered with Biotinylation Reaction Buffer to provide a biotinylated detection antibody solution. The biotinylated detection antibody solution was stored at 4° C. until use.
For detection of MMP14 activity, 1 mM Custom #2 and a 100 µM resorufin β-D-galactopyranoside solution were diluted with the buffer (4) to prepare a MMP14 and CD9/CD63/CD81 cocktail detection solution (1) containing 10 μM Custom #2 and 5 μM resorufin β-D-galactopyranoside. In addition, the solution was diluted 2-fold with the buffer (4) to prepare a detection solution (2). Nonfluorescent resorufin β-D-galactopyranoside is degraded by β-galactosidase to produce fluorescent resorufin. In this case, the maximum wavelengths of excitation and fluorescence of resorufin are 570 nm and 585 nm, respectively.
The observation of fluorescence derived from each fluorescent substance was performed under the same conditions as in Example 19 to acquire a fluorescence image. In this case, a TRITC filter was used in the observation of the fluorescence from resorufin.

The subject of experiment [2] is β-galactosidase activity inherent in the MDA-MB-231-derived extracellular vesicles. Kind of experiment: Evaluation of β-galactosidase activity of MDA-MB-231-derived extracellular vesicles in 96-well plate. The note with it: Example 33, 30° C., no CD9/CD63/CD81 detection system. It is filed as biochemical, Human. The method, then:
For detection of MMP14 activity, 1 mM Custom #2 and a 100 µM resorufin β-D-galactopyranoside solution were diluted with the buffer ([…]) containing 10 μM Custom #2 and 5 μM resorufin β-D-galactopyranoside. In addition, the solution was diluted 2-fold with the buffer (4) to prepare a detection solution (2). Nonfluorescent resorufin β-D-galactopyranoside is degraded by β-galactosidase to produce fluorescent resorufin. In this case, the maximum wavelengths of excitation and fluorescence of resorufin are 570 nm and 585 nm, respectively.
In addition, 50 μL of the detection solution (1) was added to 50 μL of each of the prepared standard samples with seven concentrations and the sample for BG measurement, and the resultant solution was used in measurement of MMP14 activity and β-galactosidase activity with a 96-well plate.
Evaluation was performed in the same manner as in Example 1 except that the reaction temperature was set to 30° C. ΔRFU was calculated by subtracting the measured value of the sample for BG measurement from the measured value of each of the samples. In this case, resorufin produced by β-galactosidase activity was simultaneously measured at an excitation wavelength of 545±20 nm and a fluorescence wavelength of 590±20 nm, and ΔRFU was calculated similarly.

As to `O=c1ccc2nc3ccc(O[C@@H]4O[C@H](CO)[C@H](O)[C@H](O)[C@H]4O)cc3oc-2c1` [resorufin β-D-galactopyranoside], the “Expected value λ (CD9/CD63/CD81)” value amounted to 0.00927 in experiment [1] (EV 0 (BG)); 2.86 in experiment [1] (EV X1 (sample 10 μg/mL)); 1.87 in experiment [1] (EV X1/3); 0.750 in experiment [1] (EV X1/9); 0.339 in experiment [1] (EV X1/27); 0.0928 in experiment [1] (EV X1/81). Besides, the “Expected value λ (CD9/CD63/CD81)” value in experiment [1] (EV X1/243) was found to be 0.0427; in experiment [1] (EV X1/729) it was 0.0240. The “Number of positives (CD9/CD63/CD81)” value was 20 in experiment [1] (EV 0 (BG)); 2,166 in experiment [1] (EV X1 (sample 10 μg/mL)); 2,315 in experiment [1] (EV X1/3); 1,544 in experiment [1] (EV X1/9); 725 in experiment [1] (EV X1/27); 144 in experiment [1] (EV X1/81). Further, the entries for the “Number of positives (CD9/CD63/CD81)” value in experiment [1] (EV X1/243) and in experiment [1] (EV X1/729) were 78 and 44, respectively. The “β-galactosidase activity (temporal changes in fluorescence intensity)” value in experiment [2] is on record as “the activity was not able to be detected at all”.
